Data as given in patent US7741521B2, “Inhibition of bid-induced cell-death using small organic molecules” (The Burnham Institute, priority 2004, dated 2010).

Key:
tBID = biological target: T1, tBID (Mus musculus, UniProt P70444); assay: tBID-induced Smac release from isolated mitochondria; assay type: biochemical; details: 50 μM compound; isolated mitochondria
T1 construct: tBID was produced by cleavage of purified BID with caspase-8, as known in the art; made in house; host or cells: E. coli BL21 (BID), then cleaved in vitro with caspase-8
T1 sequence (P70444 60-195 limits assumed): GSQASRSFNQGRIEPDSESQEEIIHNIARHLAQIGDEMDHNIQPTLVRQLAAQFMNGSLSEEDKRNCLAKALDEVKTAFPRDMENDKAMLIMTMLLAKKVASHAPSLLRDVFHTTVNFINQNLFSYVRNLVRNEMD
T1 sequence (P70444 1-59 partner limits assumed): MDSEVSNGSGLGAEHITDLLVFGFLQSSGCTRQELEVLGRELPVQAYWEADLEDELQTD
Procedure: 100 ng of tBID (cleaved by caspase 8) was pre-incubated with various concentrations of compounds for 15 minutes at 30° C. in HM buffer (10 mM Hepes, pH 7.4, 250 mM Mannitol, 10 mM KCl, 1.5 mM MgCl, 1 mM DTT, 1 mM EGTA), then 50 μg of isolated mitochondria from HCT116 cells were added to a final volume of 50 μl in HM buffer. After 1 hour incubation at 30° C., the samples were centrifuged at 10,000×g for 5 minutes at 4° C. and the supernatant was analyzed by SDS-PAGE/immunoblotting using anti-SMAC antibody.
Compounds II-IX were tested in vitro for their ability to inhibit BID-mediated release of Smac using mitochondria isolated from HeLa cells (FIG. 6A). The first lane represents mitochondria incubated without tBID. All others received 100 ng tBID without or with compounds. Each compound was tested at a concentration of 50 μM. […] To preliminarily investigate the mechanism by which compound II reduces Smac-release from isolated mitochondria, the tBID protein was treated with different concentrations of BI-6C9, after which it was incubated with mitochondria, followed by analysis of the bound and unbound fractions by immunoblotting using BID antibody. The concentration of mitochondria-bound tBID diminished in response to increasing concentrations of compound II.
About 50 ng of tBID cleaved by […] was pre-incubated for about 15 minutes at about 30° C. with various concentrations of compounds I, II, and X. Then, about 50 μg of isolated mitochondria from Hela cells were added to the reaction system. After about 1 hour of incubation at about 30° C., the samples were centrifuged at 10,000×g for about 5 minutes at about 4° C., and the supernatant was analyzed by SDS-PAGE/immunoblotting using Smac antibody. The results of the analysis are presented on FIG. 8. As shown by FIG. 9, compound I is a strong binder for BID.
Some results of comparative studies of compounds I and II are shown on FIG. 10. […] The first lane represents mitochondria incubated without tBID. All others received 50 ng tBid without or with bi-dentate compound.

BID = biological target: T2, BID (Mus musculus, UniProt P70444); assay: NMR binding to BID (HSQC/TROSY chemical shifts); details: NMR
T2 construct: poly-His (N); made in house; host or cells: E. coli BL21
T2 sequence (P70444 1-195): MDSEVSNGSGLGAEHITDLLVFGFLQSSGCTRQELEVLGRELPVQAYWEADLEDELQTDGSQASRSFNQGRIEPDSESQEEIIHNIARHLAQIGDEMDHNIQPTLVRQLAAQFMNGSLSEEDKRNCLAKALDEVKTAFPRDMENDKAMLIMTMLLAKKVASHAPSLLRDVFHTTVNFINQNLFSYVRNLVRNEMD
Procedure: Recombinant full length mouse BID was produced from a pET-19b (Novagen) plasmid construct containing the entire nucleotide sequence for BID fused to an N-terminal poly-His tag. Unlabeled BID was expressed in E. coli BL21 in LB media at 37° C., with an induction period of 3-4 hours with 1 mM IPTG. ^15N-labeled BID was similarly produced, with growth occurring in M9 media supplemented with 0.5 g/L ^15NH4Cl. ε-^13C-Met labeled BID was produced in M9 media supplemented with 50 mg/L of ε-^13C-Met at time of induction with IPTG. Following cell lysis, soluble BID was purified over a Hi-Trap chelating column (Amersham, Pharmacia), followed by ion-exchange purification with a MonoQ (Amersham, Pharmacia) column. Final BID samples were dialyzed into a buffer appropriate for the subsequent experiments. tBID was produced by cleavage of purified BID with caspase-8, as known in the art.
For all NMR experiments, BID was exchanged into 50 mM phosphate buffer at pH 7.5 and measurements were performed at 30° C. 2D [^15N,^1H]-TROSY spectra for BID were measured with 0.5 mM samples of ^15N-labeled BID. 2D [^13C,^1H]-HSQC spectra were measured with 0.2 mM samples of ε-^13C-Met labeled BID. 2D [^1H,^1H]-NOESY spectra were acquired with small molecules at a concentration of 0.9 mM in the presence of 10 μM BID. T1ρ competition experiments (200 msec spin-lock duration) were performed on either 100 μM BI-2A7 or a mixture of 100 μM BI-2A7 and 10 μM BI-6C9, in the presence and absence of 10 μM BID. All experiments were performed with either a 500 MHz or 600 MHz Bruker Avance spectrometer, both equipped with TXI probes. Typical parameters for the 2D [^15N,^1H]-TROSY spectra included ^1H and ^15N π/2 pulse lengths of 11 μsec and 40 μsec, respectively; ^1H and ^15N sweep widths of 12 ppm and 32 ppm, respectively; 16 scans and 256 indirect acquisition points and a recycle delay of 1 sec. For the 2D [^13C,^1H]-HSQC typical parameters included ^1H and ^13C π/2 pulse lengths of 10 μsec and 13 μsec, respectively; ^1H and ^13C sweep widths of 12 ppm and 5 ppm, respectively; 128 scans and 80 indirect acquisition points and a recycle delay of 1 sec. […]
To examine the binding affinity of some compounds of the invention to BID, 2D [^13C,^1H]-HSQC spectra in presence of ^13C methionine-labeled protein were measured, as at least one methionine is present in the hydrophobic groove of BID (FIG. 4B). […]
Monitoring the variation of cross-peak intensity upon addition of increasing amounts of compound II, allowed to estimate its dissociation constant KD. The arrow on FIG. 5C indicates the peak that was monitored to determine the Kd for compound II. […]

In the case of `CC(C)(C)OC(=O)NCCCC(=O)Nc1ccc(Sc2ccc([N+](=O)[O-])cc2)cc1` [Compound VI, {3-[4-(4-nitro-phenylsulfanyl)-phenylcarbamoyl]-propyl}-carbamic acid tert-butyl ester], the inhibition at 50 µM (tBID) is reported as 14%.
For `COc1ccc(S(=O)(=O)NCCCCCC(=O)Nc2ccc(Sc3ccc([N+](=O)[O-])cc3)cc2)cc1` [Compound V, 6-(4-methoxy-benzenesulfonylamino)-hexanoic acid [4-(4-nitro-phenylsulfanyl)-phenyl]-amide], the inhibition at 50 µM (tBID) was 16%.
`NCCCC(=O)Nc1ccc(Sc2ccc([N+](=O)[O-])cc2)cc1` [Compound VII, 4-amino-N-[4-(4-nitro-phenylsulfanyl)-phenyl]-butyramide] gave an inhibition at 50 µM (tBID) of 66%.
`Nc1ccc(Sc2ccc(N)cc2)cc1` [XII] was tested, and the inhibition at 50 µM (tBID) was 22% and the “binding to BID” value (BID) was “weak binder”.
With `CNS(=O)(=O)c1ccc(C)cc1` [X] the inhibition at 50 µM (tBID) was 0%.
`NCCCCCC(=O)Nc1ccc(Sc2ccc([N+](=O)[O-])cc2)cc1` [Compound IX, 6-amino-hexanoic acid [4-(4-nitro-phenylsulfanyl)-phenyl]-amide] was tested, and the inhibition at 50 µM (tBID) was 60%.
With `CC(C)(C)OC(=O)NCCCCCC(=O)Nc1ccc(Sc2ccc([N+](=O)[O-])cc2)cc1` [Compound VIII, {5-[4-(4-nitro-phenylsulfanyl)-phenylcarbamoyl]-pentyl}-carbamic acid tert-butyl ester] the inhibition at 50 µM (tBID) was 0%.
Compound `COc1ccc(S(=O)(=O)NCCCC(=O)Nc2ccc(Sc3ccc([N+](=O)[O-])cc3)cc2)cc1` [Compound III, 4-(4-methoxy-benzenesulfonylamino)-N-[4-(4-nitro-phenylsulfanyl)-phenyl]-butyramide] has an inhibition at 50 µM (tBID) of 24%.
